{"source": "patent US6548506B2", "about": "“Benzo[1,8]naphthyridine derivatives, their preparation and pharmaceutical compositions which comprise them” (Aventis Pharma S.A., priority 1998, dated 2003)", "type_in_all_cases": "in vivo", "key": {"[1]": {"assay": "2-week topical application toxicity in rat", "conditions": "2 weeks topical application b.i.d., composition at about 2, about 5 and about 10%"}, "[2]": {"tested_on": "Staphylococcus aureus AS 5155", "assay": "Model of experimental infection of the guinea pig with Staphylococcus aureus AS 5155", "conditions": "about 2%; guinea pig infected with S. aureus AS 5155, resistant to meticillin, MLSB and quinolones"}, "[3]": {"tested_on": "Staphylococcus aureus ATCC 25923", "assay": "Model of infection of the guinea-pig with Staphylococcus aureus ATCC 25923", "conditions": "about 2% in a cetomacrogol and benzyl alcohol formulation; guinea-pig infected with S. aureus ATCC 25923"}, "[4]": {"assay": "2-week topical application to nasal mucous membrane of rabbit, toxicity", "conditions": "2 weeks topical application b.i.d., composition at about 2%"}}}
{"smiles": "Cn1cc(C(=O)O)c(=O)c2cc3cc(F)c(N4CCN(c5ccc(F)cc5)CC4)cc3nc21", "note": "[Example 1, 7-Fluoro-8-[4-(4-fluorophenyl)piperazin-1-yl]-1-methyl-4-oxo-1,4-dihydrobenzo[b][1,8]-naphthyridine-3-carboxylic Acid]", "values": [{"measurement": "toxic effect", "setting": "[1]", "value": "no toxic effect was observed"}, {"measurement": "in vivo activity", "setting": "[2]", "value": "active"}, {"measurement": "in vivo activity", "setting": "[3]", "value": "active"}, {"measurement": "toxic effect", "setting": "[4]", "value": "no toxic effect was observed"}]}
